Assay results published in patent US20150306110A1, “COMPOSITIONS AND METHODS FOR TREATMENT OF INFLAMMATION AND HYPERKERATOTIC LESIONS” (Novelix Pharmaceuticals, Inc., priority 2008, published 2015).
Converted amounts (≈) assume the structure as drawn.

How the values were obtained:
SK-N-DZ = assay: Cell growth/survival, SK-N-DZ neuronal cancer cells; assay type: cell-based; settings: Homo sapiens, TP53 mut.
Experimental: (§1) Melanoma cell lines used in this study were maintained in Dulbecco's modified Eagle medium (DMEM with 4500 mg/l glucose) supplemented with 10% FCS from Gibco BRL (Life Technologies, Berlin, Germany). The canine mastocytoma cell line C2 (DeVinney et al, Am. J. Respir. Cell Mol. Biol. 3:413-20, 1990) was used in this study, along with additional human cell lines: RD-ES and TC-71 (human Ewing's sarcoma), SAOS2 (human osteosarcoma), HT-1080 (human fibrosarcoma), Caco-2 (human colon adenocarcinoma), A549 (human lung adenocarcinoma), Hep-G2 and Hep-3B (human hepatocellular carcinoma), SK-N-DZ and SK-N-FI (human embryonal neuroblastoma), HTB9 (human bladder cancer), MDA-468 and MCF-7 (human breast cancer) and SW872 liposarcoma. All breast cancer cells were routinely cultured in DMEM/F-12 or in DMEM alone supplemented with 10% FCS at 37° C. in a humidified 5% CO2 atmosphere. RD-ES and TC-71 sarcoma cell lines were maintained in RPMI 1640 (Biochrom KG, Berlin, Germany) containing 10% FCS at 37° C. in a humidified 5% CO2 atmosphere. […]
(§2) Briefly, cells were maintained in standard medium, harvested, and plated at equal densities (750,000 cells in 5 cm tissue culture dishes). […] For the assessment of cell growth, the number of surviving cells was determined using an automated cell counter from Beckman Coulter GmbH (Krefeld, Germany). […]

MCF-7 = assay: Cell growth/survival, MCF-7 breast cancer cells; assay type: cell-based; settings: Homo sapiens, MCF7, TP53 neg.
Experimental: as §1, §2

A549 = assay: Cell growth/survival, A549 lung adenocarcinoma cells; assay type: cell-based; settings: Homo sapiens, TP53 neg.
Experimental: as §1, §2

human keratinocytes = assay: Survival / anti-proliferative activity in keratinocytes; assay type: cell-based; settings: for Mean survival, percentage of control-treated cells: n=3
Experimental: (§3) All cells were treated with 2.5 μM NVX-207. Percentage (means±S.E., n=3) of control-treated cells are given. […] Mean survival in NVX-207 treated fibroblasts at 80% confluency was 92% (S.E.=3.8) versus 3.8% mean survival (S.E.=0.4) at 30% confluency. […] HUVECs, keratinocytes and fibroblast cells were obtained from Lonza GmbH (Wuppertal, Germany) and cultivated according to the manufacturer's instructions.
(§4) Human umbilical vein endothelial cells (HUVEC), keratinocytes and fibroblast cells were obtained from Lonza GmbH (Wuppertal, Germany) and cultivated according to the manufacturer's instructions. […] The IC50 value of betulinic acid in human keratinocytes was recently determined to be ˜5.0 μg/ml (Tino Galgon al., Exp Dermatol. 14:736-43, 2005), while the IC50 of NVX-207 is ˜0.7 µg/ml. […] Mean survival in NVX-207 treated fibroblasts at 80% confluency was 92% (S.E.=3.8) versus 3.8% mean survival (S.E.=0.4) at 30% confluency. […] Under normal physiological conditions, the endothelium, as well as skin fibroblasts and skin keratinocytes, show relatively low turn-over and limited cell divisions to maintain tissue integrity.
(§5) Keratinocytes at high confluence (e.g., 80%) mimic normal physiological conditions in which these cells divide more slowly (fewer cell divisions per unit of time). In contrast, keratinocytes in psoriatic lesions divide more rapidly, as do keratinocytes cultured at lower confluency (e.g., 30%). Thus, the 30% confluency conditions were considered a model for psoriasis whereas the behavior of 80% confluent cells more closely reflects the conditions observed in normal skin.

human skin = assay: Tolerability of topical NVX-207 on human skin; assay type: in vivo; settings: 1% topical solution (200 μl, 20% ethanol, 20% Tween 80 in water), human arm, once a day for one week; checked up to 6 months after
Experimental: A 1% topical solution of NVX-207 (200 μl total volume in 20% ethanol, 20% Tween® 80 in water) was topically applied to an area of skin on a human arm once a day for one week. A control solution (20% ethanol/20% Tween® 80 and 80% water) was applied to an area of skin adjacent to the area to which the NVX-207 solution was applied, also for one week.

HAT 1080 (fibrosarcoma) = assay: Cell growth/survival, HAT 1080 fibrosarcoma cells; assay type: cell-based; settings: Homo sapiens, TP53 mut.
Experimental: as §1, §2

[1] = system: human umbilical vein endothelial cells (HUVEC); assay: Survival of HUVEC at 80% and 30% confluency; assay type: cell-based; settings: 2.5 μM; for Mean survival, percentage of control-treated cells: HUVEC, n=3
Experimental: as §3, §4, §5

[2] = system: canine mammary carcinoma, scent gland carcinoma, soft tissue sarcoma; assay: Activity of NVX-207 in additional canine cancer patients (summary); settings: dog, in vivo
Text: Overall survival time is given in months.

pigs = settings: pig, in vivo
GOTO (autonomic ganglia) = assay: Cell growth/survival, GOTO neuronal cancer cells; assay type: cell-based; settings: Homo sapiens, TP53 neg.
Hep-3B = assay: Cell growth/survival, Hep-3B hepatocellular carcinoma cells; assay type: cell-based; settings: Homo sapiens, Hep3B, TP53 null
Experimental: as §1, §2

MDA-MB-468 = assay: Cell growth/survival, MDA-MB-468 breast cancer cells; assay type: cell-based; settings: Homo sapiens, TP53 mut.
Experimental: as §1, §2

Compound: C=C(C)[C@@H]1CC[C@]2(C(=O)OCC(N)(CO)CO)CC[C@]3(C)[C@H](CC[C@@H]4[C@@]5(C)CC[C@H](OC(C)=O)C(C)(C)[C@@H]5CC[C@]43C)[C@@H]12 [NVX-207, 3-O-acetylbetulinic acid-2-amino-3-hydroxy-2-hydroxymethylpropyl ester]
- IC50 (SK-N-DZ): 2.7 µM
- IC50 (MCF-7): 4 µM
- IC50 (A549): 2.5 µM
- IC50 (human keratinocytes; Homo sapiens, Keratinocyte): ~0.7 µg/mL (≈ 1.16 µM)
- IC50 lower compared to betulinic acid on a molar basis (human keratinocytes; human keratinocytes): ~10 fold
- More active against proliferating cells (30% vs 80% confluency) (human keratinocytes; keratinocytes, 2.5 μM): ~6 fold
- Mean survival, percentage of control-treated cells (human keratinocytes; keratinocytes, 30% confluency, 2.5 μM): 17%
- Mean survival, percentage of control-treated cells (human keratinocytes; keratinocytes, 80% confluency, 2.5 μM): 92.7%
- Undesirable (toxic) effects on treated skin (human skin): no undesirable (toxic) effects
- IC50 (HAT 1080 (fibrosarcoma)): 5.6 µM
- Mean survival, percentage of control-treated cells ([1]; 30% confluency): 18.3%
- Mean survival, percentage of control-treated cells ([1]; 80% confluency): 90.3%
- More effective at 30% confluency compared to 80% confluency ([1]; endothelial cells): ~5 fold
- Inflammation during treatment [2]: absence of inflammation
- Blood chemistry and hematology (blood status, mineral homoeostasis, liver and kidney functions) (pigs): did not reflect any systemic NVX-207-induced impact
- Histopathological changes in skin biopsies (pigs): No treatment-related histopathological changes were observed
- Macroscopic skin irritations (pigs; 2 weeks): No macroscopic NVX-207 related skin irritations were observed
- IC50 (GOTO (autonomic ganglia)): 2 µM
- IC50 (Hep-3B): 3.8 µM
- IC50 (MDA-MB-468): 3.6 µM
